Test results: the Deep4Chem optical property database
Blank lines part the entries; values can stand above or below the molecule they belong to.

Assay: photoluminescence quantum yield (fraction); solvent given as SMILES

SMILES: c1cc2cc(c1)c1ccc3ccc4ccc(cc4c3c1)c1ccc3ccc4ccc(cc4c3c1)c1cccc2c1
photoluminescence quantum yield (in Cc1ccccc1): 0.92

SMILES: N#Cc1cc(-c2ccc(N3c4ccccc4Oc4ccccc43)cc2)c(-c2ccc(N3c4ccccc4Oc4ccccc43)cc2)cc1C#N
photoluminescence quantum yield (in Cc1ccccc1): 0.42
photoluminescence quantum yield (in c1cc(-c2cccc(-n3c4ccccc4c4ccccc43)c2)cc(-n2c3ccccc3c3ccccc32)c1): 0.77

SMILES: C(=C\c1cnc2ccccc2n1)/c1cnccn1
photoluminescence quantum yield (in CCCCCC): 0.0014
photoluminescence quantum yield (in CCO): 0.0012
photoluminescence quantum yield (in CO): 0.001
photoluminescence quantum yield (in ClCCl): 0.0014
photoluminescence quantum yield (in c1ccccc1): 0.0015

SMILES: CC1=CC(/C=C/c2ccccc2)=[N+]2C1=C(c1ccccc1)c1c(C)cc(/C=C/c3ccccc3)n1[B-]2(F)F
photoluminescence quantum yield (in Cc1ccccc1): 0.59

SMILES: CCN(C)c1ccc(C2=C3C(C)=CC(/C=C/c4ccc(OCC(=O)OC)cc4)=[N+]3[B-](F)(F)n3c(C)cc(C)c32)cc1
photoluminescence quantum yield (in CO): 0.78

SMILES: CN1C(C(=O)Nc2ccccn2)=C([O-])c2sccc2S1(=O)=O
photoluminescence quantum yield (in CCCCO): 0.0112
photoluminescence quantum yield (in CCCO): 0.0085
photoluminescence quantum yield (in CCO): 0.00451
photoluminescence quantum yield (in CO): 0.00214

SMILES: Cc1ccc2c(c1)C(=O)c1ccncc1-2
photoluminescence quantum yield (in CC#N): 0.019
photoluminescence quantum yield (in CCCCCC): 0.0032
photoluminescence quantum yield (in CCOC(C)=O): 0.036
photoluminescence quantum yield (in Cc1ccccc1): 0.031
photoluminescence quantum yield (in ClCCl): 0.022

SMILES: CC1(C)CC(/C=C/c2ccc(-n3ccnc3)cc2)=CC(=C(C#N)C#N)C1
photoluminescence quantum yield (in CCO): 0.0001

SMILES: C(=C\c1ncc(-c2ccc(OCc3ccccc3)c(OCc3ccccc3)c2)o1)/c1cccc(N2CCN(c3ccccc3)CC2)c1
photoluminescence quantum yield (in ClCCl): 0.11

SMILES: Cc1c(C)c(B(c2c(C)c(C)c(C#N)c(C)c2C)c2c(C)c(C)c(N3c4ccccc4Oc4ccccc43)c(C)c2C)c(C)c(C)c1C#N
photoluminescence quantum yield (in c1ccc([Si](c2ccccc2)(c2ccc(-n3c4ccccc4c4ccccc43)cc2)c2ccc(-n3c4ccccc4c4ccccc43)cc2)cc1): 0.67

SMILES: COc1ccc(/C=C/C2=NC(=C\c3ccncc3)/C(=O)N2C)cc1
photoluminescence quantum yield (in C1COCCO1): 0.005
photoluminescence quantum yield (in CC#N): 0.0026
photoluminescence quantum yield (in CCO): 0.0027
photoluminescence quantum yield (in CCOC(C)=O): 0.003
photoluminescence quantum yield (in O): 0.0029

SMILES: COC(=O)c1c(NC(C)(C)C)oc(-c2ccccc2)c1C(=O)OC
photoluminescence quantum yield (in CC#N): 0.1

SMILES: CC1=[N+]2C(=C(NC(C)c3ccccc3)c3ccc(C)n3[B-]2(F)F)C=C1c1cc2n(c1)[B-](F)(F)[N+]1=CC=CC1=C2c1c(C)cc(C)cc1C (stereo unspecified)
photoluminescence quantum yield (in C1CCCCC1): 0.31
photoluminescence quantum yield (in CCOC(C)=O): 0.05

SMILES: C=Cc1cc2ccc(N(CC)CC)cc2oc1=O
photoluminescence quantum yield (in CC#N): 0.98

SMILES: CCNc1ccc2c(c1)C(C)(C)C(=O)C=C2
photoluminescence quantum yield (in O): 0.18

SMILES: O=C1c2ccccc2C(=O)C1C1C(=O)c2c3ccccc3cc3cc4ccccc4c1c23 (stereo unspecified)
photoluminescence quantum yield (in C1CCOC1): 0.294
photoluminescence quantum yield (in CC#N): 0.139
photoluminescence quantum yield (in CCCCCC): 0.339
photoluminescence quantum yield (in Cc1ccccc1): 0.356
photoluminescence quantum yield (in ClCCl): 0.247

SMILES: CCn1c(-c2ccc(-c3ccc(-c4ccc(-c5n(CC)c6cc(C)ccc6[n+]5CC)cc4)cc3)cc2)[n+](CC)c2ccc(C)cc21
photoluminescence quantum yield (in O): 0.72

SMILES: CC/[NH+]=c1\cc2oc3cc(NCCC(=O)O)c4ccccc4c3nc-2cc1C
photoluminescence quantum yield (in CCO): 0.44
photoluminescence quantum yield (in O): 0.28

SMILES: COC(=O)c1ccc(C#Cc2ccc(N(C)C)cc2)cc1
photoluminescence quantum yield (in C1CCCCC1): 0.351
photoluminescence quantum yield (in C1CCOC1): 0.15
photoluminescence quantum yield (in C1COCCO1): 0.303
photoluminescence quantum yield (in CC1CCCO1): 0.248
photoluminescence quantum yield (in CC#N): 0.134
photoluminescence quantum yield (in CC(C)=O): 0.428
photoluminescence quantum yield (in CC(C)CC(C)(C)C): 0.31
photoluminescence quantum yield (in CC(C)O): 0.013
photoluminescence quantum yield (in CCCCCCCCCCCCCCCC): 0.314
photoluminescence quantum yield (in CCCCCCCCCCCCCCCCCl): 0.339
photoluminescence quantum yield (in CCOC(C)=O): 0.14
photoluminescence quantum yield (in CCOCC): 0.216
photoluminescence quantum yield (in CN(C)C=O): 0.065
photoluminescence quantum yield (in CO): 0.001
photoluminescence quantum yield (in CS(C)=O): 0.053
photoluminescence quantum yield (in Cc1ccccc1): 0.324

SMILES: c1ccc(-c2nnc(-c3cc(-n4c5ccccc5c5ccccc54)c(-n4c5ccccc5c5ccccc54)cc3-c3nnc(-c4ccccc4)o3)o2)cc1
photoluminescence quantum yield (in Cc1ccccc1): 0.383

SMILES: COC(=O)/C(C#N)=c1\s/c(=c2/s/c(=C(/C#N)C(=O)OC)c3cc(-c4ccc(OC)cc4)sc23)c2sc(-c3ccc(OC)cc3)cc12
photoluminescence quantum yield (in Cc1ccccc1): 0.424

SMILES: CC(C)(C)c1ccc(-c2c(-c3ccc4c5ccccc5n(-c5ccccc5)c4c3)c(C#N)c(-c3ccc4c5ccccc5n(-c5ccccc5)c4c3)c(-c3ccc(C(C)(C)C)cc3)c2-c2ccc(C(C)(C)C)cc2)cc1
photoluminescence quantum yield (in C1CCOC1): 0.457

SMILES: Cc1cc2nc3[nH]c(=O)[nH]c(=O)c3nc2cc1C
photoluminescence quantum yield (in CC#N): 0.028

SMILES: CCCCCCc1ccc(-n2c3[n+](c4c5ccccc5c5ccccc5c42)[B-](C)(C)c2cc(-n4c5ccccc5c5ccccc54)ccc2-3)cc1
photoluminescence quantum yield (in C1CCOC1): 0.82
photoluminescence quantum yield (in CC#N): 0.71
photoluminescence quantum yield (in Cc1ccccc1): 0.76
photoluminescence quantum yield (in ClCCl): 0.83

SMILES: COc1cc(C(=O)O)ccc1O
photoluminescence quantum yield (in O): 0.03

SMILES: Cc1cc(C)c(-c2nnc(-c3ccc(-n4c5ccccc5c5ccccc54)c(C)c3)o2)c(C)c1
photoluminescence quantum yield (in Cc1ccccc1): 0.44

SMILES: COc1cc2c(cc1-c1ccc(C)cc1)Cc1c3c(c4c(c1-2)-c1cc(OC)c(-c2ccc(C)cc2)cc1C4)C(=O)N(CCC(C)C)C3=O
photoluminescence quantum yield (in C1CCOC1): 0.67

SMILES: CC1(C)OB(c2ccc3ccc4cccc5ccc2c3c45)OC1(C)C
photoluminescence quantum yield (in Cc1ccccc1): 0.81

SMILES: C(#Cc1ccccc1)C(C#Cc1ccccc1)=Cc1cccc(C=C(C#Cc2ccccc2)C#Cc2ccccc2)c1
photoluminescence quantum yield (in ClC(Cl)Cl): 0.06

SMILES: Cc1ccc([C@@H]2C[C@](O)(c3ccccn3)C[C@](O)(c3ccccn3)[C@H]2C(=O)c2ccc(N(c3ccccc3)c3ccccc3)cc2)cc1
photoluminescence quantum yield (in C1CCOC1): 0.54
photoluminescence quantum yield (in CC#N): 0.02
photoluminescence quantum yield (in CCO): 0.01
photoluminescence quantum yield (in CCOC(C)=O): 0.44
photoluminescence quantum yield (in CN(C)C=O): 0.03
photoluminescence quantum yield (in ClCCl): 0.27
photoluminescence quantum yield (in c1ccccc1): 0.97

SMILES: CCn1c2ccccc2c2cc(/C=C3\C(=O)c4ccccc4S3(=O)=O)ccc21
photoluminescence quantum yield (in C1CCOC1): 0.029
photoluminescence quantum yield (in C1COCCO1): 0.025
photoluminescence quantum yield (in CC#N): 0.023
photoluminescence quantum yield (in CC(C)=O): 0.042
photoluminescence quantum yield (in CCOC(C)=O): 0.039
photoluminescence quantum yield (in CN(C)C=O): 0.033
photoluminescence quantum yield (in CO): 0.003
photoluminescence quantum yield (in CS(C)=O): 0.083
photoluminescence quantum yield (in Cc1ccccc1): 0.014
photoluminescence quantum yield (in ClC(Cl)Cl): 0.04
photoluminescence quantum yield (in ClCCl): 0.04

SMILES: F[B-]1(F)Oc2ccccc2-c2nc(-c3ccccc3)c3ccccc3[n+]21
photoluminescence quantum yield (in Cc1ccccc1): 0.013

SMILES: Cc1cc(C)c(C2=C3C=CC=[N+]3[B-]3(F)Oc4cc(O)cc5c6ccc(C)cc6c6cc2n3c6c45)c(C)c1 (stereo unspecified)
photoluminescence quantum yield (in ClC(Cl)Cl): 0.35

SMILES: CC(C)(C)c1ccc2c(c1)c1cc(C(C)(C)C)ccc1n2-c1ccc(-c2ccc3c(c2)C(=O)c2ccc(-c4ccc(-n5c6ccc(C(C)(C)C)cc6c6cc(C(C)(C)C)ccc65)cc4)cc2C3=O)cc1
photoluminescence quantum yield (in Cc1ccccc1): 0.6
photoluminescence quantum yield (in c1ccc2c(c1)c1ccccc1n2-c1ccc(-c2ccc(-n3c4ccccc4c4ccccc43)cc2)cc1): 0.65

Next, values leading:

photoluminescence quantum yield (in CCC(C)C): 0.19
SMILES: Cc1ccsc1-c1ccc(-c2ccc(-c3sccc3C)s2)s1

photoluminescence quantum yield (in C1CCOC1): 0.12
photoluminescence quantum yield (in CO): 0.05
SMILES: CCOC(=O)C1=CN(c2ccccc2)C=CC1c1ccccc1 (stereo unspecified)

photoluminescence quantum yield (in ClCCl): 0.12
SMILES: COc1ccc(-c2cc3c(ccc4sc5ccc6sccc6c5c43)s2)cc1

photoluminescence quantum yield (in ClCCl): 0.43
SMILES: CC(=O)c1ccc(-c2cccc3ncc(-c4ccccc4)n23)cc1

photoluminescence quantum yield (in C1CCCCC1): 0.05
SMILES: CCCCc1cc2cccc[n+]2[b-]2ccc(-c3cc[b-]4c(c3)c(CCCC)cc3cccc[n+]43)cc21

photoluminescence quantum yield (in C1CCCCC1): 0.001
photoluminescence quantum yield (in CO): 0.001
SMILES: Clc1ccc(/C=C(\c2ccccc2)c2nc3ccccc3s2)cc1

photoluminescence quantum yield (in CC#N): 0.0073
photoluminescence quantum yield (in CC(C)O): 0.029
photoluminescence quantum yield (in CCCCO): 0.023
photoluminescence quantum yield (in CCCO): 0.021
photoluminescence quantum yield (in CCO): 0.02
photoluminescence quantum yield (in CO): 0.011
SMILES: COc1cccc2c1C(=O)c1ccccc1-2

photoluminescence quantum yield (in ClCCl): 0.739
SMILES: CC1=C(c2ccccc2)C(C)=[N+]2C1=C(c1c(-c3ccccn3)nc3ccccn13)c1c(C)cc(C)n1[B-]2(F)F

photoluminescence quantum yield (in CC#N): 0.235
SMILES: CCOC(=O)c1c(NC(C)(C)C)oc(-c2ccc(-c3ccccc3)cc2)c1C(=O)OCC

photoluminescence quantum yield (in CCO): 0.0075
photoluminescence quantum yield (in ClCCl): 0.017
photoluminescence quantum yield (in O): 0.01
SMILES: Oc1c(-c2cccs2)cccc1-c1nc2ccccc2s1

photoluminescence quantum yield (in ClC(Cl)Cl): 0.19
SMILES: N#CC(C#N)=Cc1ccc(-c2ccc(N(c3ccccc3)c3ccccc3)cc2)o1

photoluminescence quantum yield (in O): 0.37
SMILES: CC1=CC(C)=[N+]2C1=C(c1ccccc1)c1c(C)cc(/C=C/c3ccc(O)cc3)n1[B-]2(F)F

photoluminescence quantum yield (in ClC(Cl)Cl): 0.19
SMILES: N#CC(C#N)=Cc1ccc(-c2ccc(N(c3ccccc3)c3ccccc3)cc2)cc1

photoluminescence quantum yield (in ClCCl): 0.33
SMILES: CC(C)(C)c1ccc(-c2cc(-c3ccc(-c4cc(-c5ccc(C(C)(C)C)cc5)c(C(=O)NCc5ccccc5)s4)s3)sc2C(=O)NCc2ccccc2)cc1

photoluminescence quantum yield (in ClC(Cl)Cl): 0.74
SMILES: CCCN1c2ccccc2Sc2cc(/C=C\c3cc(=O)oc4cc(O)ccc34)ccc21

photoluminescence quantum yield (in C1CCCCC1): 0.23
photoluminescence quantum yield (in CCOC(C)=O): 0.18
photoluminescence quantum yield (in CO): 0.16
SMILES: c1ccc2cc(-n3cnc4ccccc43)ccc2c1

photoluminescence quantum yield (in ClCCl): 0.31
SMILES: CC(C)(C)c1ccc(-c2cnc3cccc(-c4ccccc4)n23)cc1

photoluminescence quantum yield (in CCO): 0.04
photoluminescence quantum yield (in ClCCl): 0.0001
SMILES: N#Cc1cnc(-c2c3ccccc3c(-c3ccccc3)c3ccccc23)nc1

photoluminescence quantum yield (in CCCCCC): 0.43
photoluminescence quantum yield (in CO): 0.54
photoluminescence quantum yield (in ClCCl): 0.34
SMILES: CC(C)(C)c1ccc2ccc3c(C(C)(C)C)ccc4ccc1c2c43

photoluminescence quantum yield (in C1CCOC1): 0.54
photoluminescence quantum yield (in C1COCCO1): 0.48
photoluminescence quantum yield (in CC#N): 0.41
photoluminescence quantum yield (in CCO): 0.24
photoluminescence quantum yield (in ClCCl): 0.62
SMILES: CN(C)c1ccc(/C=C/c2ccc(-c3cc(-c4ccccn4)nc(-c4ccccn4)c3)cc2)cc1

photoluminescence quantum yield (in ClCCl): 0.17
SMILES: N#CC1N=c2cc3c4c(cccc4c2=NC1C#N)C(c1ccccc1)=C(c1ccccc1)O3 (stereo unspecified)

photoluminescence quantum yield (in ClCCl): 0.9
SMILES: FC(F)(F)c1ccc(B2c3ccccc3Nc3ccccc32)c(C(F)(F)F)c1
